Experimental data taken from patent US4107424A, “1-N-[(S)-α-hydroxy-ω-aminoacyl] derivatives of 3',4'-dideoxykanamycin B and 3'-deoxykanamycin B antibiotics” (Zaidan Hojin Biseibutsu Kagaku Kenkyu Kai, priority 1972, dated 1978).
Converted amounts (≈) assume the structure as drawn. Read-outs that look alike come from different tables or passages of the source.

Legend:
[1] = system: Pseudomonas aeruginosa No.12; test: Minimal inhibitory concentration, agar dilution streak method; type: cell-based; details: nutrient agar, 37° C, 18 hours, read-out: Minimal inhibitory concentration
Experimental: (§1) *Agar Agar dilution streak method (nutrient agar, 37° C, 18 hours)
(§2) *Agar dilution streak method (nutrient agar, 37° C, 18 hours).

[2] = system: Escherichia coli K-12 ML 1629; test: as above; type: cell-based; details: K12ML1629, nutrient agar, 37° C, 18 hours, read-out: Minimal inhibitory concentration
Experimental: as §1, §2

Escherichia coli K-12 = test: as above; type: cell-based; details: K12, nutrient agar, 37° C, 18 hours, read-out: Minimal inhibitory concentration
Experimental: as §1, §2

[3] = system: Escherichia coli K-12 ML 1630; test: as above; type: cell-based; details: K12ML1630, nutrient agar, 37° C, 18 hours, read-out: Minimal inhibitory concentration
Experimental: as §1, §2

[4] = system: Escherichia coli K-12 LA 290 R 64; test: as above; type: cell-based; details: nutrient agar, 37° C, 18 hours, read-out: Minimal inhibitory concentration
Experimental: as §1, §2

[5] = system: Escherichia coli K-12 ML 1410; test: as above; type: cell-based; details: K12ML1410, nutrient agar, 37° C, 18 hours, read-out: Minimal inhibitory concentration
Experimental: as §1, §2

[6] = system: Escherichia coli K-12 LA 290 R 56; test: as above; type: cell-based; details: 18 h, read-out: Minimal inhibitory concentration
Experimental: as §1, §2

[7] = system: Pseudomonas aeruginosa A 3; test: as above; type: cell-based; details: A3, nutrient agar, 37° C, 18 hours, read-out: Minimal inhibitory concentration
Experimental: as §1, §2

[8] = system: Klebsiella pneumoniae type 22 #3038; test: as above; type: cell-based; details: for MIC: Klebsiella pneumoniae, nutrient agar, 37° C, 18 hours
Experimental: as §1, §2

[9] = system: Escherichia coli K-12 LA 290 R 55; test: as above; type: cell-based; details: 18 h, read-out: Minimal inhibitory concentration
Experimental: as §1, §2

[10] = system: Pseudomonas aeruginosa TI-13; test: as above; type: cell-based; details: TI13, nutrient agar, 37° C, 18 hours, read-out: Minimal inhibitory concentration
Experimental: as §1, §2

[11] = system: Pseudomonas aeruginosa GN 315; test: as above; type: cell-based; details: GN315, nutrient agar, 37° C, 18 hours, read-out: Minimal inhibitory concentration
Experimental: as §1, §2

[12] = system: Staphylococcus aureus FDA 209P; test: as above; type: cell-based; details: FDA209P, nutrient agar, 37° C, 18 hours, read-out: Minimal inhibitory concentration
Experimental: as §1, §2

[13] = system: Escherichia coli K-12 JR 66/W 677; test: as above; type: cell-based; details: for MIC: Escherichia coli, 18 h, read-out: Minimal inhibitory concentration
Experimental: as §1, §2

[14] = system: Escherichia coli K-12 ML 1410 R 81; test: as above; type: cell-based; details: 18 h, read-out: Minimal inhibitory concentration
Experimental: as §1, §2

[15] = system: Escherichia coli K-12 W 677; test: as above; type: cell-based; details: K12W677, nutrient agar, 37° C, 18 hours, read-out: Minimal inhibitory concentration
Experimental: as §1, §2

[16] = system: Pseudomonas aeruginosa 99; test: as above; type: cell-based; details: nutrient agar, 37° C, 18 hours, read-out: Minimal inhibitory concentration
Experimental: (§3) [α]D^22 + 38°, (c 0.85, water).
as §1, §2

[17] = system: Bacillus subtilis NRRL B-558; test: as above; type: cell-based; details: NRRLB558, nutrient agar, 37° C, 18 hours
Experimental: as §3, §1, §2

Proteus rettgeri GN 311 = test: as above; type: cell-based; details: Providencia rettgeri, GN311; nutrient agar, 37° C, 18 hours
Experimental: as §3, §1, §2

Salmonella typhosa T-63 = test: as above; type: cell-based; details: Salmonella enterica, nutrient agar, 37° C, 18 hours
Experimental: as §3, §1, §2

Escherichia coli NIHJ = test: as above; type: cell-based; details: nutrient agar, 37° C, 18 hours
Experimental: as §3, §1, §2

[18] = system: Klebsiella pneumoniae PCI 602; test: as above; type: cell-based; details: PCI602, nutrient agar, 37° C, 18 hours
Experimental: as §3, §1, §2

Sarcina lutea PCI 1001 = test: as above; type: cell-based; details: Micrococcus luteus, read-out: Minimal inhibitory concentration
Experimental: as §3, §1, §2

Proteus rettgeri GN 466 = test: as above; type: cell-based; details: Providencia rettgeri, GN466; nutrient agar, 37° C, 18 hours
Experimental: as §3, §1, §2

[19] = system: Escherichia coli K-12 R-5; test: as above; type: cell-based; details: K12R5, nutrient agar, 37° C, 18 hours
Experimental: as §3, §1, §2

[20] = system: Escherichia coli K-12 C 600 R 135; test: as above; type: cell-based; details: 18 h, read-out: Minimal inhibitory concentration
Experimental: as §3, §1, §2

[21] = system: Escherichia coli J 5 R 11-2; test: as above; type: cell-based; details: J5R112, 18 h, read-out: Minimal inhibitory concentration
Experimental: as §3, §1, §2

[22] = system: kanamycin-resistant strains; details: cited from earlier work
[23] = system: Mycobacterium smegmatis ATCC 607; test: Minimal inhibitory concentration, agar dilution streak method; type: cell-based; details: Mycolicibacterium smegmatis, ATCC607, nutrient agar, 37° C
[24] = system: Staphylococcus aureus Smith; test: Minimum inhibitory concentration, serial dilution method; type: cell-based; details: 18 h, read-out: Minimum inhibitory concentrations
[25] = system: Shigella flexneri 4b JS 11811; test: as above; type: cell-based; details: 4BJS11811, nutrient agar, 37° C, 18 hours, read-out: Minimum inhibitory concentrations
[26] = system: Staphylococcus aureus Terajima; test: as above; type: cell-based; details: 18 h, read-out: Minimum inhibitory concentrations
Bacillus anthracis = test: microbe, parasite or virus in culture; type: cell-based; details: 18 h, read-out: Minimum inhibitory concentrations
[27] = system: Bacillus cereus ATCC 10702; test: Minimum inhibitory concentration, serial dilution method; type: cell-based; details: ATCC10702, nutrient agar, 37° C, 18 hours, read-out: Minimum inhibitory concentrations
[28] = system: Bacillus subtilis PCI 219; test: as above; type: cell-based; details: PCI219, 18 h, read-out: Minimum inhibitory concentrations
[29] = system: Klebsiella pneumoniae PCI 1602; test: as above; type: cell-based; details: PCI1602, 18 h, read-out: Minimum inhibitory concentrations
[30] = system: Corynebacterium bovis 1810; test: as above; type: cell-based; details: Corynebacterium bovis, 1810, 18 h, read-out: Minimum inhibitory concentrations
Shigella sonnei JS 11746 = test: as above; type: cell-based; details: JS11746, nutrient agar, 37° C, 18 hours, read-out: Minimum inhibitory concentrations
Proetus vulgaris OX 19 = test: as above; type: cell-based; details: nutrient agar, 37° C, 18 hours; read-out: Minimum inhibitory concentrations
[31] = system: Shigella dysenteriae JS 11910; test: as above; type: cell-based; details: JS11910, 18 h, read-out: Minimum inhibitory concentrations
[32] = system: Salmonella enteritidis 1891; test: as above; type: cell-based; details: Salmonella enterica, nutrient agar, 37° C, 18 hours, read-out: Minimum inhibitory concentrations
[33] = strain resistant to butirosin B

Row | SMILES | MIC [1] [mg/L] | MIC [2] [mg/L] | MIC (Escherichia coli K-12) [mg/L] | MIC [3] [mg/L] | MIC [4] [mg/L] | MIC [5] [mg/L] | MIC [6] [mg/L] | MIC [7] [mg/L] | MIC [8] [mg/L] | MIC [9] [mg/L] | MIC [10] [mg/L] | MIC [11] [mg/L] | MIC [12] [mg/L] | MIC [13] [mg/L] | MIC [14] [mg/L] | MIC [15] [mg/L] | MIC [16] [mg/L] | MIC (Salmonella typhosa T-63) [mg/L] | MIC (Escherichia coli NIHJ) [mg/L] | MIC [19] [mg/L] | other results
1 | NCC[C@H](O)C(=O)N[C@@H]1C[C@H](N)[C@@H](O[C@H]2O[C@H](CN)[C@@H](O)[C@H](O)[C@H]2N)[C@H](O[C@@H]2O[C@H](CO)[C@@H](O)[C@H]2O)[C@H]1O [Butirosin B, 1-N-[(S)-α-hydroxy-γ-amino-n-butyryl]-ribostamycin] | 6.25 (≈ 11.2 µM) | 1.56 (≈ 2.81 µM) | 0.78 (≈ 1.4 µM) | 1.56 (≈ 2.81 µM) | 0.78 (≈ 1.4 µM) | 0.78 (≈ 1.4 µM) | 0.78 (≈ 1.4 µM) | 3.12 (≈ 5.62 µM) | > 100 | 0.78 (≈ 1.4 µM) | 25 (≈ 45 µM) | > 100 | 1.56 (≈ 2.81 µM) | > 100 | 3.12 (≈ 5.62 µM) | 0.39 (≈ 0.702 µM) | 50 (≈ 90 µM) | 0.39 (≈ 0.702 µM) | 3.12 (≈ 5.62 µM) | 6.25 (≈ 11.2 µM) | effectiveness against Klebsiella pneumoniae type 22 #3038 [8, 33]: resistant to butirosin B; effectiveness against Escherichia coli K-12 JR 66/W 677 [13, 33]: resistant to butirosin B; MIC [17]: 0.39 mg/L (≈ 0.702 µM); MIC (Proteus rettgeri GN 311): 6.25 mg/L (≈ 11.2 µM); MIC [18]: 0.78 mg/L (≈ 1.4 µM); MIC (Sarcina lutea PCI 1001; PCI1001, nutrient agar, 37° C, 18 hours): 50 mg/L (≈ 90 µM); MIC (Proteus rettgeri GN 466): 3.12 mg/L (≈ 5.62 µM); MIC [20]: 0.78 mg/L (≈ 1.4 µM); MIC [21]: 1.56 mg/L (≈ 2.81 µM); activity against kanamycin- and ribostamycin-resistant bacteria [22]: active against some kanamycin- and ribostamycin-resistant bacteria; MIC ([23]; 48 hours, read-out: Minimal inhibitory concentration): 0.78 mg/L (≈ 1.4 µM)
2 | NC[C@H]1O[C@H](O[C@H]2[C@H](O)[C@@H](O[C@H]3O[C@H](CO)[C@@H](O)[C@H](N)[C@H]3O)[C@H](N)C[C@@H]2N)[C@H](N)[C@@H](O)[C@@H]1O [Kanamycin B, kanamycin B] | 12.5 (≈ 25.9 µM) | > 100 | 0.78 (≈ 1.61 µM) | > 100 | 3.13 (≈ 6.47 µM) | 0.78 (≈ 1.61 µM) | 3.13 (≈ 6.47 µM) | 50 (≈ 103 µM) | > 100 | 12.5 (≈ 25.9 µM) | 100 (≈ 207 µM) | > 100 | 0.39 (≈ 0.807 µM) | > 100 | > 100 | 0.39 (≈ 0.807 µM) | > 100 | 0.2 (≈ 0.414 µM) | 0.78 (≈ 1.61 µM) | 1.56 (≈ 3.23 µM) | MIC [24]: < 0.2 mg/L; MIC [25]: 3.13 mg/L (≈ 6.47 µM); MIC [26]: < 0.2 mg/L; MIC (Sarcina lutea PCI 1001; PCI1001, 18 h): 1.56 mg/L (≈ 3.23 µM); MIC (Bacillus anthracis): < 0.2 mg/L; MIC [27]: 0.78 mg/L (≈ 1.61 µM); MIC [28]: < 0.2 mg/L; MIC [29]: 0.78 mg/L (≈ 1.61 µM); MIC ([23]; 18 hours, read-out: Minimum inhibitory concentrations): 0.78 mg/L (≈ 1.61 µM); MIC [30]: 1.56 mg/L (≈ 3.23 µM); MIC (Shigella sonnei JS 11746): 1.56 mg/L (≈ 3.23 µM); MIC (Proetus vulgaris OX 19): 0.78 mg/L (≈ 1.61 µM); MIC [31]: 3.13 mg/L (≈ 6.47 µM); MIC [32]: 1.56 mg/L (≈ 3.23 µM)
